In PubChem BioAssay AID1963869 (Molecular Pharmacology Branch, DTP, NCI, 2024):

Tested on: KRAS patient-derived spheroids with HUVEC/MSC, viability
Assay: Anticancer human tumor 323965-272-R-J2-PDC patient-derived pancreatic carcinoma cell line growth inhibition [KRAS2]
Conditions: for viability, T/C: stronger effect = lower value
In short: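 KRAS-mutant tumor cells were grown as spheroids with HUVEC endothelial cells and human MSCs as stroma. Targeted agents were tested alone and with KRAS pathway inhibitors. Doses started at or near clinical Cmax, or 10 microM, descending half-log.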

[1] = curve of first compound, second compound 0.1 µM
[2] = curve of first compound, second compound 0.316 µM
[3] = curve of first compound, second compound 1 µM
[4] = curve of first compound, second compound 3.16 µM
[5] = second compound 0.1 µM, first compound 0.0316 µM
[6] = second compound 0.1 µM, first compound 0.1 µM
[7] = second compound 0.1 µM, first compound 0.316 µM
[8] = second compound 0.1 µM, first compound 1 µM
[9] = second compound 0.1 µM, first compound 3.16 µM
[10] = second compound 0.1 µM, first compound 10 µM
[11] = second compound 0.316 µM, first compound 0.0316 µM
[12] = second compound 0.316 µM, first compound 0.1 µM
[13] = second compound 0.316 µM, first compound 0.316 µM
[14] = second compound 0.316 µM, first compound 1 µM
[15] = second compound 0.316 µM, first compound 3.16 µM
[16] = second compound 0.316 µM, first compound 10 µM
[17] = second compound 1 µM, first compound 0.0316 µM
[18] = second compound 1 µM, first compound 0.1 µM
[19] = second compound 1 µM, first compound 0.316 µM
[20] = second compound 1 µM, first compound 1 µM
[21] = second compound 1 µM, first compound 3.16 µM
[22] = second compound 1 µM, first compound 10 µM
[23] = second compound 3.16 µM, first compound 0.0316 µM
[24] = second compound 3.16 µM, first compound 0.1 µM
[25] = second compound 3.16 µM, first compound 0.316 µM
[26] = second compound 3.16 µM, first compound 1 µM
[27] = second compound 3.16 µM, first compound 3.16 µM
[28] = second compound 3.16 µM, first compound 10 µM
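Also: spheroids exposed to agents for 7 days.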
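For viability, T/C in this document: 100% = DMSO vehicle control viability.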

## CN(C)C/C=C/C(=O)Nc1cc2c(Nc3ccc(F)c(Cl)c3)ncnc2cc1O[C@H]1CCOC1
Compound 0.000316 µM
  viability, T/C: 99% [middle of 5 runs]
Compound 0.001 µM
  viability, T/C: 97.1% [middle of 5 runs]
Compound 0.00316 µM
  viability, T/C: 89.2% [middle of 5 runs]
Compound 0.01 µM
  viability, T/C: 81% [middle of 5 runs]
Compound 0.0316 µM
  viability, T/C: 74.5% [middle of 5 runs]
Compound 0.1 µM
  viability, T/C: 73.5% [middle of 5 runs]
Curve of compound
  IC50: > 100 nM

## CC1(C)CCC(CN2CCN(c3ccc(C(=O)NS(=O)(=O)c4ccc(NCC5CCOCC5)c([N+](=O)[O-])c4)c(Oc4cnc5[nH]ccc5c4)c3)CC2)=C(c2ccc(Cl)cc2)C1 + CNCc1ccccc1-c1csc(C(C)Nc2nc(C)nc3cc(OC)c(OC)cc23)c1
[1]
  IC50: 1820 nM
[2]
  IC50: 1680 nM
[3]
  IC50: 1910 nM
[4]
  IC50: 1430 nM
Curve of first compound, second compound 10 µM
  IC50: < 31.6 nM
[5]
  viability, T/C: 94.5%
[6]
  viability, T/C: 94.2%
[7]
  viability, T/C: 86.2%
[8]
  viability, T/C: 87.8%
[9]
  viability, T/C: 14.9%
[10]
  viability, T/C: 5.18%
[11]
  viability, T/C: 83%
[12]
  viability, T/C: 91.8%
[13]
  viability, T/C: 92.5%
[14]
  viability, T/C: 81.2%
[15]
  viability, T/C: 12%
[16]
  viability, T/C: 2.51%
[17]
  viability, T/C: 106%
[18]
  viability, T/C: 104%
[19]
  viability, T/C: 99.2%
[20]
  viability, T/C: 94.8%
[21]
  viability, T/C: 15.3%
[22]
  viability, T/C: 1.65%
[23]
  viability, T/C: 104%
[24]
  viability, T/C: 102%
[25]
  viability, T/C: 98.7%
[26]
  viability, T/C: 71.3%
[27]
  viability, T/C: 1.61%
[28]
  viability, T/C: 1.05%
Second compound 10 µM, first compound 0.0316 µM
  viability, T/C: 0.23%
Second compound 10 µM, first compound 0.1 µM
  viability, T/C: 0.28%
Second compound 10 µM, first compound 0.316 µM
  viability, T/C: 0.27%
Second compound 10 µM, first compound 1 µM
  viability, T/C: 0.19%
Second compound 10 µM, first compound 3.16 µM
  viability, T/C: 0.14%
Second compound 10 µM, first compound 10 µM
  viability, T/C: 0.18%

## COC(=O)c1ccc2c(C(=Nc3ccc(N(C)C(=O)CN4CCN(C)CC4)cc3)c3ccccc3)c(O)[nH]c2c1 + C=CC(=O)N1CCN(c2nc(OCC3CCCN3C)nc3c2CCN(c2cccc4cccc(C)c24)C3)CC1CC#N
Curve of first compound, second compound 0.0316 µM
  IC50: 1640 nM
[1]
  IC50: 993 nM
[2]
  IC50: 388 nM
[3]
  IC50: 873 nM
[4]
  IC50: < 31.6 nM
Second compound 0.0316 µM, first compound 0.0316 µM
  viability, T/C: 76.7%
Second compound 0.0316 µM, first compound 0.1 µM
  viability, T/C: 73.2%
Second compound 0.0316 µM, first compound 0.316 µM
  viability, T/C: 69.8%
Second compound 0.0316 µM, first compound 1 µM
  viability, T/C: 61.8%
Second compound 0.0316 µM, first compound 3.16 µM
  viability, T/C: 35.4%
Second compound 0.0316 µM, first compound 10 µM
  viability, T/C: 19.6%
[5]
  viability, T/C: 66.7%
[6]
  viability, T/C: 68.8%
[7]
  viability, T/C: 65.8%
[8]
  viability, T/C: 49.3%
[9]
  viability, T/C: 28.1%
[10]
  viability, T/C: 19.7%
[11]
  viability, T/C: 63.8%
[12]
  viability, T/C: 67.3%
[13]
  viability, T/C: 49.6%
[14]
  viability, T/C: 38.3%
[15]
  viability, T/C: 20.6%
[16]
  viability, T/C: 18.2%
[17]
  viability, T/C: 64.9%
[18]
  viability, T/C: 62.8%
[19]
  viability, T/C: 58.4%
[20]
  viability, T/C: 49.5%
[21]
  viability, T/C: 23.4%
[22]
  viability, T/C: 16.8%
[23]
  viability, T/C: 26.2%
[24]
  viability, T/C: 25.4%
[25]
  viability, T/C: 30%
[26]
  viability, T/C: 15.6%
[27]
  viability, T/C: 9.71%
[28]
  viability, T/C: 5.57%

## O=C(c1cc(Cc2n[nH]c(=O)c3ccccc23)ccc1F)N1CCN(C(=O)C2CC2)CC1
Compound 0.0316 µM
  viability, T/C: 102% [middle of 5 runs]
Compound 0.1 µM
  viability, T/C: 102% [middle of 5 runs]
Compound 0.316 µM
  viability, T/C: 96.4% [middle of 5 runs]
Compound 1 µM
  viability, T/C: 100% [middle of 5 runs]
Compound 3.16 µM
  viability, T/C: 92.1% [middle of 5 runs]
Compound 10 µM
  viability, T/C: 59.7% [middle of 5 runs]
Curve of compound
  IC50: > 10000 nM
